Laboratory results taken from ChEMBL document CHEMBL2010748, “Structure-Activity Relationship Studies of HIV-1 Integrase Oligonucleotide Inhibitors” (ACS Med Chem Lett, 2011).

Biological target: Human immunodeficiency virus type 1 integrase (Human immunodeficiency virus 1, UniProt Q7ZJM1)
Test: Inhibition of Human immunodeficiency virus 1 integrase 3'-processing activity expressed in Escherichia coli using 21-mer DNA and Mg2+ after 2 hrs by polyacrylamide gel electrophoresis

Chain of Human immunodeficiency virus type 1 integrase (Q7ZJM1 whole entry): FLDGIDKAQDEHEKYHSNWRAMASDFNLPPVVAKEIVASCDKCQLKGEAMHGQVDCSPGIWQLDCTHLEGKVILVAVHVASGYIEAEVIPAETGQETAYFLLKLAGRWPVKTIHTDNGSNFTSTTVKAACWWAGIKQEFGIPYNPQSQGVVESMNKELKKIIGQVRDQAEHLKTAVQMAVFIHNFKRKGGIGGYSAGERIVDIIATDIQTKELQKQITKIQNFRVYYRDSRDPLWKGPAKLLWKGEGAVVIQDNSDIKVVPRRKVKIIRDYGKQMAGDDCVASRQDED

IC50 [nM] | SMILES
19 | CO[C@@H]1[C@H](O)[C@@H](COP(=O)(S)O[C@H]2[C@@H](OC)[C@H](n3cnc4c(=O)[nH]c(N)nc43)O[C@@H]2COP(=O)(S)O[C@H]2[C@@H](OC)[C@H](n3ccc(=O)[nH]c3=O)O[C@@H]2COP(=O)(S)O[C@H]2[C@@H](OC)[C@H](n3cnc4c(=O)[nH]c(N)nc43)O[C@@H]2COP(=O)(S)O[C@H]2[C@@H](OC)[C@H](n3ccc(=O)[nH]c3=O)O[C@@H]2COP(=O)(S)O[C@H]2[C@@H](OC)[C@H](n3ccc(=O)[nH]c3=O)O[C@@H]2COP(=O)(S)O[C@H]2[C@@H](OC)[C@H](n3ccc(=O)[nH]c3=O)O[C@@H]2COP(=O)(S)O[C@H]2[C@@H](OC)[C@H](n3ccc(=O)[nH]c3=O)O[C@@H]2COP(=O)(S)O[C@H]2[C@@H](OC)[C@H](n3ccc(=O)[nH]c3=O)O[C@@H]2COP(=O)(S)O[C@H]2[C@@H](OC)[C@H](n3cnc4c(=O)[nH]c(N)nc43)O[C@@H]2COP(=O)(S)O[C@H]2[C@@H](OC)[C@H](n3cnc4c(=O)[nH]c(N)nc43)O[C@@H]2COP(=O)(S)OCCCCCCNC(=O)c2cc(Cl)c(C(=O)O)c(-c3c4cc(Cl)c(=O)c(Cl)c-4oc4c(Cl)c(O)c(Cl)cc34)c2Cl)O[C@H]1n1ccc(=O)[nH]c1=O (some centres not stated)
20 | CCCCCCCC/C=C\CCCCCCCC(=O)NCCCOCC(O)COP(=O)(S)O[C@H]1[C@@H](OC)[C@H](n2ccc(=O)[nH]c2=O)O[C@@H]1COP(=O)(S)O[C@H]1[C@@H](OC)[C@H](n2cnc3c(=O)[nH]c(N)nc32)O[C@@H]1COP(=O)(S)O[C@H]1[C@@H](OC)[C@H](n2ccc(=O)[nH]c2=O)O[C@@H]1COP(=O)(S)O[C@H]1[C@@H](OC)[C@H](n2cnc3c(=O)[nH]c(N)nc32)O[C@@H]1COP(=O)(S)O[C@H]1[C@@H](OC)[C@H](n2ccc(=O)[nH]c2=O)O[C@@H]1COP(=O)(S)O[C@H]1[C@@H](OC)[C@H](n2ccc(=O)[nH]c2=O)O[C@@H]1COP(=O)(S)O[C@H]1[C@@H](OC)[C@H](n2ccc(=O)[nH]c2=O)O[C@@H]1COP(=O)(S)O[C@H]1[C@@H](OC)[C@H](n2ccc(=O)[nH]c2=O)O[C@@H]1COP(=O)(S)O[C@H]1[C@@H](OC)[C@H](n2ccc(=O)[nH]c2=O)O[C@@H]1COP(=O)(S)O[C@H]1[C@@H](OC)[C@H](n2cnc3c(=O)[nH]c(N)nc32)O[C@@H]1COP(=O)(S)O[C@H]1[C@@H](OC)[C@H](n2cnc3c(=O)[nH]c(N)nc32)O[C@@H]1COP(=O)(S)OCCCCCCNC(=O)c1cc(Cl)c(C(=O)O)c(-c2c3cc(Cl)c(=O)c(Cl)c-3oc3c(Cl)c(O)c(Cl)cc23)c1Cl (some centres not stated)
